Laboratory results reported in patent US10561633B2, “Hydroxyflavanones as appetite stimulants” (Symrise AG, priority 2014, dated 2020).
Marks after values point to notes of the source that are not given here.

Key:
[1] = tested on: Human neuroblastoma cells (SH-SY5Y); assay: Serotonin release from SH-SY5Y cells (Serotonin-ELISA, normalised to DNA content); assay type: cell-based; details: 5 min stimulation, relative to control (0.1% EtOH)
Protocol: Human neuroblastoma cells (SH-SY5Y, ATCC number CRL-2266) are used as the cell model for the release of the neurotransmitter serotonin. Cultivation takes place at 37° C. and 5% CO2 content with a mixture consisting of equal parts of Eagle's minimal essential medium (MEM) and F12 medium (in each case with 10% FBS and 1 penicillin/streptomycin). For measurement of the serotonin release, the cells are harvested with trypsin and, after a vitality test by trypan blue staining, sown in 35 mm cell culture dishes in a defined cell number.
After stimulation of 1.25*10^6 human neuroblastoma cells (SH-SY5Y) for 5 minutes with 300 μl of Krebs-Ringer-HEPES buffer, 0.1% ascorbic acid, pH 6.2, with or without addition of the homoeriodictyol, wherein concentrations of 0.001 μM, 0.01 μM, 0.1 μM, 1 μM and 10 μM in the Krebs-Ringer-HEPES buffer are established when the homoeriodictyol is added, the serotonin content is determined by means of an enzyme-based detection method (Serotonin-ELISA sensitive, DLD Diagnostica, Hamburg, Germany). The cells are lyzed with a buffer containing sodium lauroyl sarcosinate and the DNA content is determined by means of a NanoQuant plate (Tecan, Ménnendorf, Switzerland) for normalization of the serotonin release.
The results are shown in % relative to the control (buffer with 0.1% ethanol). n=3, tR=2. Significant differences in the treatments relative to the control were tested with a single-factor ANOVA with a subsequent Holm-Sidak post hoc test against the control and marked according to the following scheme: * p≤0.05; ** p≤0.01; *** p≤0.001. Concentration-dependent differences were tested with a single-factor ANOVA with a subsequent Holm-Sidak post hoc test and identified by different letters (a, b), wherein no common letter marks a significant difference.

[2] = tested on: serotonin plasma concentration; assay: Change in serotonin plasma concentration of healthy subjects after oral homoeriodictyol (crossover human intervention); assay type: in vivo; details: 30 mg oral in 125 ml of water, on average 37 minutes after administration, n=10, water control −6.81 ± 10.6, p<0.05
Protocol: In order to determine the serotonin plasma concentration, whole blood is taken from healthy subjects in each case on a test day before and on average 37 minutes after administration of the test solution (1st test day: 125 ml of water; 2nd test day: 30 mg of homoeriodictyol dissolved in 125 ml of water).
The plasma is obtained from the whole blood by refrigerated centrifugation for 15 minutes at 1800×g, and the serotonin concentration in the plasma is determined by an enzyme-based detection method (Serotonin ELISA, DLD Diagnostika, Germany).
(§1) The change in the serotonin plasma concentration before and after administration of 125 ml of water or 30 mg of homoeriodictyol dissolved in 125 ml of water is shown in Table 2. There is a significant difference between the two treatments (p<0.05; n=10), which was determined by a dependent, two-sided Student's T-test and is marked *.

[3] = tested on: serotonin plasma concentration; assay: Absolute plasma serotonin concentration after oral administration of 30 mg of homoeriodictyol; assay type: in vivo, human; details: after oral administration of 30 mg in 125 ml of water, on average 35 minutes, healthy subjects, n=16; before administration 306 ± 152; p<0.05
Protocol: In order to determine the serotonin plasma concentration, whole blood is taken from healthy subjects on a test day before and on average 35 minutes after administration of 30 mg of homoeriodictyol dissolved in 125 ml of water. The plasma is obtained from the whole blood by refrigerated centrifugation for 15 minutes at 1800×g, and the serotonin concentration in the plasma is determined by an enzyme-based detection method (Serotonin-ELISA, DLD Diagnostika, Germany).
as §1, with “of” for “of 125 ml of water or”, “3.” for “2.”, “(p<0.05, n=16),” for “(p<0.05; n=10),”

3T3-L1 adipocytes = assay: Fatty acid uptake in 3T3-L1 adipocytes (QBT Fatty Acid Uptake kit); assay type: cell-based; details: 30 min preincubation, AUC of fluorescence over one hour vs EtOH control
Protocol: 3T3-L1 preadipocytes (ATCC CL-173) are used as the cell model for the uptake of free fatty acid into peripheral cells, here adipocytes. Cultivation is carried out at 37° C. and 5% CO2 content in DMEM culture medium to which 10% FBS 4% L-glutamine and 1% penicillin/streptomycin have been added. In order to measure the fatty acid uptake, the 3T3-L1 cells are differentiated in 175 cm^2 cell culture bottles from fully matured adipocytes. To that end, two days after reaching confluence, the cells are stimulated to differentiate for 48 hours by the addition of 10 μg/ml insulin, 1 μM dexamethasone and 0.5 mM isobutyl methyl xanthine from the culture medium. After the cells have been treated for a further 48 hours with 10 μg/ml insulin in the cell culture medium, normal culture medium is again used until the adipocytes are fully mature. The cells are usually used for the test seven to nine days after the onset of differentiation. To that end, the cells are harvested with trypsin and, after a positive vitality test with trypan blue, scattered in a 96-well plate at a rate of 65,000 cells per well. Measurement of the fatty acid uptake is carried out after a 60-minute synchronization of the cells by removal of the fetal bovine serum and a 30-minute preincubation with Hank's balanced salt solution, to which 20 mM HEPES (HBSS/HEPES), with or without the addition of from 0.01 to 10 μM of homoeriodictyol, by means of a fluorescence-labeled fatty acid analog (QBT Fatty Acid Uptake kit, Molecular Devices, Germany), have been added. The change in the area under the curve formed by the increase in the fluorescence signal over the course of one hour is shown in % in comparison with the control. The change in the fatty acid uptake in 3T3-L1 adipocytes after preincubation for 30 minutes with HESS/HEPES buffer with 0.1% ethanol (control) or 0.01-10 μM homoeriodictyol dissolved in HBSS/HEPES buffer is shown in Table 4. Significant differences (p<0.001) relative to the control were tested with a single-factor ANOVA against the control with a subsequent Dunn's post hoc test and are marked ***. Mean values from 3-4 independent experiments with in each case 3 repetitions are shown.

Structure (SMILES): COc1cc(C2CC(=O)c3c(O)cc(O)cc3O2)ccc1O (centres unmarked) [Homoeriodictyol, homoeriodictyol]
- Serotonin release T/C ([1]; 0.001 μM): 62.2%
- Serotonin release T/C ([1]; 0.01 μM): 42.9%
- Serotonin release T/C ([1]; 0.1 μM): 42.6%
- Serotonin release T/C ([1]; 1 μM): 43.5%
- Serotonin release T/C ([1]; 10 μM): 71.9%
- Change in the serotonin concentration in the plasma after administration of the test solution [2]: −19.1 ± 10.6
- Serotonin concentration in the plasma [3]: 192 ± 122 nmol
- Change in fatty acid uptake (3T3-L1 adipocytes; 0.01 μM): 4.34%
- Change in fatty acid uptake (3T3-L1 adipocytes; 0.1 μM, p<0.001): 8.78*** %
- Change in fatty acid uptake (3T3-L1 adipocytes; 1 μM): 4.10%
- Change in fatty acid uptake (3T3-L1 adipocytes; 10 μM): −0.47%
